The values below are quoted from earlier work in patent publication US6355633B1, “Aryl sulfonic acids and derivatives as FSH antagonists” (American Home Products Corporation, priority 1999, dated 2002).

For the data set, the target named is T1, FSH receptor (Rattus norvegicus, UniProt P20395).
T1 construct: endogenous in cells; host or cells: primary ovarian granulosa cells of DES-treated immature Sprague-Dawley rats
T1 sequence (P20395 18-692): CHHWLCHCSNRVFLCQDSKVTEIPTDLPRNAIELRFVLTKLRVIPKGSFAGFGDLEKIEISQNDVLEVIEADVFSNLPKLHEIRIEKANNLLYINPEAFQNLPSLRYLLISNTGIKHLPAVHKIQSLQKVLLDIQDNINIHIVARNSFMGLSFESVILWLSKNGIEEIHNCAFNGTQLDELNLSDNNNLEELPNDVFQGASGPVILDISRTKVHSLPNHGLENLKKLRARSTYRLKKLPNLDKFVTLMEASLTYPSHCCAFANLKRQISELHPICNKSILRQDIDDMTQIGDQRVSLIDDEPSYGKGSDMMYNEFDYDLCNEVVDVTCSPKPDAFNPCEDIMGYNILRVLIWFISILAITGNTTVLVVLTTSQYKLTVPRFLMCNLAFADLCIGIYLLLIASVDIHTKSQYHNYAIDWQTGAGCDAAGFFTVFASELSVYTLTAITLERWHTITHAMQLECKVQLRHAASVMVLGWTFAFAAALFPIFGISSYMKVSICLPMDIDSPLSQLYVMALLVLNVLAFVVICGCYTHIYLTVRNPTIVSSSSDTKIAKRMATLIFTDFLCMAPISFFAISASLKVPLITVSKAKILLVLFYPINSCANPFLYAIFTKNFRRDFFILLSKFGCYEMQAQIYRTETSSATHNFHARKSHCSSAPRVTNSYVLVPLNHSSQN
Particulars: literature report; cited from earlier work.

For the compound `Cc1ccc(C(=O)Nc2ccc(S(=O)(=O)O)c3cc(S(=O)(=O)O)cc(S(=O)(=O)O)c23)cc1NC(=O)c1cccc(NC(=O)Nc2cccc(C(=O)Nc3cc(C(=O)Nc4ccc(S(=O)(=O)O)c5cc(S(=O)(=O)O)cc(S(=O)(=O)O)c45)ccc3C)c2)c1` [suramin, Suramin Sodium], the “inhibition of FSH binding to its receptor” value is on record as “inhibit FSH binding to its receptor”.
